Assay results: patent US9161927B2, “Drug combinations containing PDE4 inhibitors and NSAIDs” (Boehringer Ingelheim International GmbH, priority 2009, dated 2015)
Read-outs that look alike come from different tables or passages of the source.

Legend:
[1] = test system: male Wistar rats; assay: Experiment 4: roflumilast-mediated diarrhoea and mesentery histopathology in rats, with or without SC-560 or lumiracoxib; format: in vivo, rat; conditions: affected animals out of animals examined; p.o. for four days, 95 hours after t0; roflumilast 10 mg/kg at 1300, SC-560 or lumiracoxib 2 mg/kg at 0800 and 1700
Protocol: (§1) Six male Wistar rats in each group were treated for four days with the following substances (all substances are given p.o.=orally):
(§2) Group 1 (“control group”): Six male Wistar rats were given a daily dose of 0.5% Natrosol (placebo) at the times 0800, 1300 and 1700 hours.
(§3) Group 2 (“roflumilast group”): Six male Wistar rats were given a daily dose of 0.5% Natrosol (placebo) at 0800 and 1700 hours and 10 mg/kg roflumilast (PDE4 inhibitor) at 1300 hours.
(§4) Group 6 (“lumiracoxib group”): Six male Wistar rats were given a daily dose of 2 mg/kg lumiracoxib (NSAID, selective for COX-2) at the times 0800 and 1700 hours and 0.5% Natrosol at 1300 hours.
(§5) At the end of the experiment (95 hours after t0 (=the time of the first administration on day 1, 0800 hours)) the rats from the individual groups were examined phenotypically and histopathologically for the presence of multifocal perivascular mononuclear infiltration (=inflammation parameter) in the mesentery and for the proliferation of fibroblasts in the mesentery. In addition, the occurrence of diarrhoea in the rats from the different groups was noted.

[2] = test system: male Wistar rats; assay: Experiment 3: roflumilast-mediated weight loss, leukocytosis and neutrophilia in rats, with or without SC-560 or lumiracoxib; format: in vivo, rat; conditions: for leukocytosis (white blood cells, FIG. 2B on the left) / neutrophilia (neutrophils in % of white blood cells, FIG. 2B on the right): 95 hours after t0; for leukocytosis (white blood cells, FIG. 2B on the left) / neutrophilia (neutrophils in % of white blood cells, FIG. 2B on the right) / weight loss (body weight as percentage change from t0, FIG. 2A): p.o. for four days, roflumilast 10 mg/kg at 1300, SC-560 or lumiracoxib 2 mg/kg at 0800 and 1700, compared with control group
Protocol: as §1, §2, §3, §4
The average±standard deviation of the body weights at time t0 was 306±11 g.
At the end of the experiment (95 hours after t0 (=the time of the first administration on day 1, 0800 hours)) the proportion of white blood cells (×1000 cells/μl blood, FIG. 2B, left-hand Figure) and the proportion of neutrophils (in % of white blood cells, FIG. 2B, right-hand Figure) were determined from the blood of 5 of the rats from the individual groups.

[3] = test system: male Wistar rats; assay: Experiment 1: roflumilast-mediated weight loss, leukocytosis and neutrophilia in rats, with or without diclofenac
Protocol: as §1, §2, §3
(§6) Group 3 (“roflumilast+diclofenac group”): Six male Wistar rats were given a daily dose of 1 mg/kg diclofenac (NSAID) at the times 0800 and 1700 hours and 10 mg/kg roflumilast (PDE4 inhibitor) at 1300 hours.
(§7) Group 4 (“diclofenac group”): Six male Wistar rats were given a daily dose of 1 mg/kg diclofenac (NSAID) at the times 0800 and 1700 hours and 0.5% Natrosol (placebo) at 1300 hours.
(§8) For pharmacokinetic analysis (determining the plasma levels of the substances) on day 4 one rat from each group was used; these rats were no longer available for other parameters under investigation.
The average±standard deviation of the body weights at time t0 was 355±17 g.
At the end of the experiment (95 hours after t0 (=the time of the first administration on day 1, 0800)) the proportion of white blood cells (×1000 cells/μl blood, FIG. 1B, left-hand Figure) and the proportion of neutrophils (in % of white blood cells, FIG. 1B, right-hand Figure) were determined from the blood of 4 or 5 of the rats from the individual groups.

[4] = test system: male Wistar rats; format: in vivo; conditions: affected animals out of animals examined; p.o. for four days, 95 hours after t0; roflumilast 10 mg/kg at 1300, diclofenac 1 mg/kg at 0800 and 1700
Protocol: as §1, §2, §3, §6, §7, §8, §5

[5] = NSAID 2 mg/kg at 0800 and 1700 co-administered with roflumilast 10 mg/kg at 1300, p.o. for four days
[6] = 95 hours after t0, p.o. for four days, roflumilast 10 mg/kg at 1300, diclofenac 1 mg/kg at 0800 and 1700, compared with control group

| SMILES | Diarrhoea [1] | leukocytosis (white blood cells, FIG. 2B on the left) [2] | neutrophilia (neutrophils in % of white blood cells, FIG. 2B on the right) [2] | protective effect on roflumilast-mediated leukocytosis [2, 5] | protective effect on roflumilast-mediated neutrophilia [2, 5] | protective effect on roflumilast-mediated weight loss [2, 5] | weight loss (body weight as percentage change from t0, FIG. 2A) [2] | leukocytosis (white blood cells, FIG. 1B on the left) [3, 6] | neutrophilia (neutrophils in % of white blood cells, FIG. 1B on the right) [3, 6] | weight loss (body weight as percentage change from t0, FIG. 1A) ([3]; p.o. for four days, roflumilast 10 mg/kg at 1300, diclofenac 1 mg/kg at 0800 and 1700, compared with control group) | Diarrhoea [4] | Mesentery: Proliferation of fibroblasts [4] | Mesentery: multifocal perivascular mononuclear infiltration (=inflammation parameter) [4] | Mesentery: Proliferation of fibroblasts [1] | Mesentery: multifocal perivascular mononuclear infiltration (=inflammation parameter) [1] | rats which died between day 4 and day 5 of the experiment ([3]; group of six rats, roflumilast 10 mg/kg p.o. daily) |
| --- | --- | --- | --- | --- | --- | --- | --- | --- | --- | --- | --- | --- | --- | --- | --- | --- |
| COc1ccc(-n2nc(C(F)(F)F)cc2-c2ccc(Cl)cc2)cc1 [SC-560] | 0/6 | very similar to the control groups | very similar to the control groups | absolutely no protective effect | absolutely no protective effect | absolutely no protective effect | very similar to the control groups | – | – | – | – | – | – | – | – | – |
| O=C(O)Cc1ccccc1Nc1c(Cl)cccc1Cl [diclofenac] | – | – | – | – | – | – | – | very similar to the control groups | very similar to the control groups | very similar to the control groups | 0/6 | 0/5 | 0/5 | – | – | – |
| Cc1ccc(Nc2c(F)cccc2Cl)c(CC(=O)O)c1 [lumiracoxib] | 0/6 | very similar to the control groups | very similar to the control groups | – | – | – | very similar to the control groups | – | – | – | – | – | – | 0/5 | 0/5 | – |
| O=C(Nc1c(Cl)cncc1Cl)c1ccc(OC(F)F)c(OCC2CC2)c1 [roflumilast] | 2/6 | observed | observed | – | – | – | observed | – | – | – | 5/6 | 4/4 | 4/4 | 5/5 | 5/5 | one rat |
